The values that follow come from patent US8779157B2, “MGLUR4 allosteric potentiators, compositions, and methods of treating neurological dysfunction” (Vanderbilt University, priority 2009, dated 2014).

By EC50 is commonly meant the midpoint of the concentration-response curve.

The target of the test is mGluR4 (UniProt Q14833). In words: mGluR4 potentiation assay (fluorescence, Ca2+ or thallium/GIRK readout; EC20 agonist). The format is cell-based, human / rat. The settings on record: half maximal effective concentration for mGluR4 potentiation; species of receptor not given. How it is done:
The disclosed compounds and compositions can be evaluated for their ability to act as a potentiator of metabotropic glutamate receptor activity, in particular mGluR4 activity, by any suitable known methodology known in the art. For example, Chinese Hamster Ovary (CHO) cells transfected with human mGluR4 or HEK cells co-transfected with rat mGluR4 and the G-protein regulated Inwardly Rectifying Potassium channel (GIRK) were plated in clear bottom assay plates for assay in a Hamamatsu FDSS Fluorometric Plate Reader. The cells were loaded with either a Ca2+-sensitive fluorescent dye or the thallium responsive dye and the plates were washed and placed into a suitable kinetic plate reader. For human mGluR4 assays, a fluorescence baseline was established for 3-5 seconds, the disclosed compounds were then added to the cells, and the response in cells was measured. Approximately two and a half minutes later, a concentration of mGluR4 orthosteric agonist (e.g. glutamate or L-AP4) eliciting approximately 20% (EC20) of the maximal agonist response was added to the cells, and the response was measured. Two minutes later, a concentration of mGluR4 agonist (e.g. glutamate or L-AP4) eliciting 80% (EC80) of the maximal agonist response was added to the cells, and the response was measured. For rat mGluR4/GIRK experiments, a baseline was established for approximately five seconds, disclosed compounds were added, and either an EC20 or EC80 concentration of agonist was added approximately two and one half minutes later. Potentiation of the agonist response of mGluR4 by the disclosed compounds was observed as an increase in response to the EC20 concentration of agonist in the presence of compound compared to the response to agonist in the absence of compound. Similarly, antagonism of the agonist response of mGluR4 by the disclosed compounds was observed as a decrease in response to the EC80 concentration of agonist in the presence of compound compared to the response to agonist in the absence of compound.
The above described assay operated in two modes. In the first mode, a range of concentrations of the disclosed compounds are added to cells, followed by a single fixed concentration of agonist. If the compound acts as a potentiatior, an EC50 value for potentiation and a maximum extent of potentiation by the compound at this concentration of agonist is determined by non-linear curve fitting. If the compound acts as a noncompetitive antagonist, an IC50 value is determined by non-linear curve fitting. In the second mode, several fixed concentrations of the disclosed compounds are added to various wells on a plate, followed by a range in concentrations of agonist for each concentration of disclosed compound. The EC50 values for the agonist at each concentration of compound are determined by non-linear curve fitting. A decrease in the EC50 value of the agonist with increasing concentrations of the sample compound (a leftward shift of the agonist concentration-response curve) is an indication of the degree of mGluR4 potentiation at a given concentration of the sample compound. A decrease in the maximal response of the agonist with increasing concentrations of the sample compounds, with or without a rightward shift in agonist potency, is an indication of the degree of noncompetitive antagonism at mGluR4. The second mode also indicates whether the sample compounds also affect the maximum response to mGluR4 to agonists.
For the molecule `O=C(Nc1ccc(N2C(=O)C3COCCN3C2=S)c(Cl)c1)c1cccc(F)n1` (stereo not drawn) [Example 1.3.38, N-(3-Chloro-4-(1-oxo-3-thioxodihydro-1H-imidazo[5,1-c][1,4]oxazin-2(3H, 8H,8aH)-yl)phenyl)-6-fluoropicolinamide], the EC50 turned out to be 933 nM. Consider `O=C(Nc1ccc(N2C(=O)C3COCCN3C2=S)c(Cl)c1)c1cccc(Cl)n1` (stereo not drawn) [Example 1.3.32, 6-Chloro N-(3-chloro-4-(1-oxo-3-thioxodihydro-1H-imidazo[5,1-c][1,4]oxazin-2(3H,8H, 8aH)-yl)phenyl)picolinamide], for which the EC50 is 1490 nM. Take `CC(C)(C)OC(=O)N1CCN2C(=O)N(c3ccc(NC(=O)c4ccccn4)cc3Cl)C(=O)C2C1` (stereo not drawn) [Example 1.3.44, tert-butyl-2-(2-chloro-4-(picolinamide)phenyl)-1,3-dioxohexahydroimidazo[1,5-a]pyrazine-7(1H)-carboxylate]: the EC50 is 754 nM. To `O=C(Nc1ccc(N2C(=O)NC3(CCC(c4ccccc4)CC3)C2=O)c(Cl)c1)c1ccccn1` (stereo not drawn) [Example 1.3.51, N-(3-chloro-4-(2,4-dioxo-8-phenyl-1,3-diazaspiro[4.5]decan-3-yl)phenyl)picolinamide] belongs 2140 nM; to `O=C(Nc1ccc(N2C(=O)C3CCCCN3C2=O)c(Cl)c1)c1ccncn1` (stereo not drawn) [Example 1.3.6, N-(3-Chloro-4-(1,3-dioxotetrahydroimidazo[1,5-a]pyridin-2(1H,3H,5H)-yl)phenyl)pyrimidine-4-carboxamide], 2580 nM; to `O=C(Nc1ccc(N2C(=O)C3COCCN3C2=O)c(Cl)c1)c1cccs1` (stereo not drawn) [Example 1.3.24, N-(3-Chloro-4-(1,3-dioxodihydro-1H-imidazo[5,1-c][1,4]oxazin-2(3H,8H,8aH)-yl)phenyl)thiophene-2-carboxamide], 9500 nM. To `COc1cc(NC(=O)c2ccccn2)ccc1N1C(=O)N[C@@](C)(Cc2ccc(F)cc2)C1=O` [Example 1.3.63, (S)-N-(4-(4-(4-fluorobenzyl)-4-methyl-2,5-dioxoimidazolidin-1-yl)-3-methoxyphenyl)picolinamide] belongs 1040 nM; to `O=C(Nc1ccc(N2C(=O)NC3(CCCCC3)C2=O)c(C(F)(F)F)c1)c1ccccn1` [Example 1.3.50, N-(4-(2,4-dioxo-1,3-diazaspiro[4.5]decan-3-yl)-3-(trifluoromethyl)phenyl)picolinamide], 454 nM. To `O=C(Nc1ccc(N2C(=O)C3COCCN3C2=S)c(Cl)c1)c1cscn1` (stereo not drawn) [Example 1.3.35, N-(3-Chloro-4-(1-oxo-3-thioxodihydro-1H-imidazo[5,1-c][1,4]oxazin-2(3H,8H,8aH)-yl)phenyl)thiazole-4-carboxamide] belongs 1490 nM; to `CC(C)(C)C(=O)N1CCN2C(=O)N(c3ccc(NC(=O)c4ccccn4)cc3Cl)C(=O)C2C1` (stereo not drawn) [Example 1.3.73, N-(3-chloro-4-(1,3-dioxo-7-pivaloylhexahydroimidazo[1,5-a]pyrazin-2(3H)-yl)phenyl)picolinamide], 1070 nM; to `C[C@@]1(Cc2ccccc2)NC(=O)N(c2ccc(NC(=O)c3ncc(F)cc3F)cc2Cl)C1=O` [Example 1.3.66, (S)-N-(4-(4-benzyl-4-methyl-2,5-dioxoimidazolidin-1-yl)-3-chlorophenyl)-3,5-difluoropicolinamide], 2960 nM.

On to `O=C(Nc1ccc(N2C(=O)C3CS(=O)(=O)CCN3C2=O)c(Cl)c1)c1ccccn1` (stereo not drawn) [Example 1.3.41, N-(3-chloro-4-(1,3-dioxodihydro-1H-imidazo[5,1-c][1,4]dioxothiazin-2(3H,8H,8aH)-yl)phenyl)picolinamide], for which the EC50 turned out to be 3030 nM. Turning to `O=C(Nc1ccc(N2C(=O)C3COCCN3C2=O)c(Cl)c1)c1ncccc1F` (stereo not drawn) [Example 1.3.22, N-(3-Chloro-4-(1,3-dioxodihydro-1H-imidazo[5,1-c][1,4]oxazin-2(3H,8H,8aH)-yl)phenyl)-3-fluoropicolinamide], the EC50 is 5820 nM. In the case of `O=C(Nc1ccc(N2C(=O)C3COCCN3C2=S)c(Cl)c1)c1ncccc1F` (stereo not drawn) [Example 1.3.39, N-(3-Chloro-4-(1-oxo-3-thioxodihydro-1H-imidazo[5,1-c][1,4]oxazin-2(3H, 8H,8aH)-yl)phenyl)-3-fluoropicolinamide] it was 1200 nM. As for `CC12CCCCN1C(=S)N(c1ccc(NC(=O)c3cccc(Cl)n3)cc1Cl)C2=O` (stereo not drawn) [Example 1.3.93, 6-chloro-N-(3-chloro-4-(8a-methyl-1-oxo-3-thioxohexahydroimidazo[1,5-a]pyridin-2(3H)-yl)phenyl)picolinamide], the EC50 worked out at 2400 nM. To `O=C(Nc1ccc(N2C(=O)NC3(CCCC3)C2=O)c(Cl)c1)c1ccccn1` [Example 1.3.13, N-(3-chloro-4-(2,4-dioxo-1,3-diazaspiro[4.4]nonan-3-yl)phenyl)picolinamide] belongs 795 nM; to `O=C(Nc1ccc(N2C(=O)C3CCCCN3C2=S)c(Cl)c1)c1cccc(F)n1` (stereo not drawn) [Example 1.3.83, N-(3-chloro-4-(1-oxo-3-thioxohexahydroimidazo[1,5-a]pyridin-2(3H)-yl)phenyl)-6-fluoropicolinamide], 354 nM; to `O=C(Nc1ccc(N2C(=O)C3CCCCN3C2=S)c(Cl)c1)c1cccc(Cl)n1` (stereo not drawn) [Example 1.3.75, 6-chloro-N-(3-chloro-4-(1-oxo-3-thioxohexahydroimidazo[1,5-a]pyridin-2(3H)-yl)phenyl)picolinamide], 3260 nM. To `O=C(Nc1ccc(N2C(=O)C3CCCCN3C2=S)c(Cl)c1)c1ccc(Cl)o1` (stereo not drawn) [Example 1.3.82, 5-chloro-N-(3-chloro-4-(1-oxo-3-thioxohexahydroimidazo[1,5-a]pyridin-2(3H)-yl)phenyl)furan-2-carboxamide] belongs 2850 nM; to `CN1C(=O)N(c2ccc(NC(=O)c3ccccn3)cc2Cl)C(=O)[C@]1(C)Cc1ccc(F)cc1` [Example 1.3.62, (S)-N-(3-chloro-4-(4-(4-fluorobenzyl)-3,4-dimethyl-2,5-dioxoimidazolidin-1-yl)phenyl)picolinamide], 217 nM; to `CC12CCCCN1C(=O)N(c1ccc(NC(=O)c3ccc(Cl)o3)cc1Cl)C2=O` (stereo not drawn) [Example 1.3.89, 5-chloro-N-(3-chloro-4-(8a-methyl-1,3-dioxohexahydroimidazo[1,5-a]pyridin-2(3H)-yl)phenyl)furan-2-carboxamide], 4670 nM. Regarding `C[C@@]1(Cc2ccc(F)cc2)NC(=O)N(c2ccc(NC(=O)c3ccccn3)cc2Cl)C1=O` [Example 1.3.61, (S)-N-(3-chloro-4-(4-(4-fluorobenzyl)-4-methyl-2,5-dioxoimidazolidin-1-yl)phenyl)picolinamide], the EC50 was 335 nM.

As for `CC1(C)NC(=O)N(c2ccc(NC(=O)c3ccccn3)cc2Cl)C1=O` [Example 1.3.18, N-(3-chloro-4-(4,4-dimethyl-2,5-dioxoimidazolidin-1-yl)phenyl)picolinamide], the EC50 came to 4210 nM. In the case of `CC12CCCCN1C(=O)N(c1ccc(NC(=O)c3ncc(F)cc3F)cc1Cl)C2=O` (stereo not drawn) [Example 1.3.88, N-(3-chloro-4-(8a-methyl-1,3-dioxohexahydroimidazo[1,5-a]pyridin-2(3H)-yl)phenyl)-3,5-difluoropicolinamide] it was 1100 nM; in that of `O=C(Nc1ccc(N2C(=O)C3COCCN3C2=S)c(Cl)c1)c1nccs1` (stereo not drawn) [Example 1.3.34, N-(3-Chloro-4-(1-oxo-3-thioxodihydro-1H-imidazo[5,1-c][1,4]oxazin-2(3H,8H,8aH)-yl)phenyl)thiazole-2-carboxamide], 1170 nM; in that of `O=C(Nc1ccc(N2C(=O)C3COCCN3C2=S)c(Cl)c1)c1ccc(Cl)o1` (stereo not drawn) [Example 1.3.37, 5-Chloro-N-(3-chloro-4-(1-oxo-3-thioxodihydro-1H-imidazo[5,1-c][1,4]oxazin-2(3H, 8H,8aH)-yl)phenyl)-furan-2-carboxamide], 5050 nM. `CC(C)(C)[C@@H]1NC(=O)N(c2ccc(NC(=O)c3ccccn3)cc2Cl)C1=O` [Example 1.3.57, (S)-N-(4-(4-(tert-butyl)-2,5-dioxoimidazolidin-1-yl)-3-chlorophenyl)picolinamide]: the EC50 was 200 nM.
